# Source: patent US5733913A, “6-Aryl pyrido[2,3-d] pyrimidines and naphthyridines for inhibiting protein tyrosine kinase mediated cellular proliferation” (priority 1995, dated 1998)
# What was measured:
# [1] = target: T1, human FGF-1 (flg) receptor tyrosine kinase (Homo sapiens, UniProt P11362); test: FGF receptor tyrosine kinase assay; assay type: biochemical; details: read-out: Inhibition of Protein Tyrosine Kinases, FGF, IC50
# T1 construct: a fragment of DNA that codes for the intracellular tyrosine kinase domain; made in house; host or cells: Sf9 insect cells (baculovirus), cell lysate
# T1 sequence (P11362 478-767 limits assumed): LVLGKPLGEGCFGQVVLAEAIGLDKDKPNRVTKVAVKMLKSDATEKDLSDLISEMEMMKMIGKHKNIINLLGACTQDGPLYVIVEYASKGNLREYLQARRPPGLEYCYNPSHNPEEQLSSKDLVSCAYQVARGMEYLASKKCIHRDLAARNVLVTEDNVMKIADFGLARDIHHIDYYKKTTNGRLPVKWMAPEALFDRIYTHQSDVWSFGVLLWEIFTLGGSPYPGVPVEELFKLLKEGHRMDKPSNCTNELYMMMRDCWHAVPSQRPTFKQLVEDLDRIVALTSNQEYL
# In short: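 Intracellular kinase domains expressed in baculovirus-infected SF9 cells; crude lysate used as enzyme. Inhibitor preincubated 10 min at 25 °C with lysate in pH 7.0 Hepes buffer with 10 mM MnCl2 and poly(Glu-Tyr) 4:1, then γ-32P-ATP (50 μM ATP) added for 10 min at 25 °C. TCA-precipitated 32P on filters counted, no-enzyme background subtracted.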
# [2] = target: T2, Human EGF receptor tyrosine kinase (Homo sapiens, UniProt P00533); test: EGF receptor tyrosine kinase assay; assay type: biochemical; details: read-out: Inhibition of Protein Tyrosine Kinases, EGF, IC50
# T2 construct: isolated from A431 epidermoid carcinoma cells; endogenous in cells; host or cells: A431 epidermoid carcinoma cells (Triton lysate, wheat germ agglutinin eluate)
# T2 sequence (P00533 25-1210): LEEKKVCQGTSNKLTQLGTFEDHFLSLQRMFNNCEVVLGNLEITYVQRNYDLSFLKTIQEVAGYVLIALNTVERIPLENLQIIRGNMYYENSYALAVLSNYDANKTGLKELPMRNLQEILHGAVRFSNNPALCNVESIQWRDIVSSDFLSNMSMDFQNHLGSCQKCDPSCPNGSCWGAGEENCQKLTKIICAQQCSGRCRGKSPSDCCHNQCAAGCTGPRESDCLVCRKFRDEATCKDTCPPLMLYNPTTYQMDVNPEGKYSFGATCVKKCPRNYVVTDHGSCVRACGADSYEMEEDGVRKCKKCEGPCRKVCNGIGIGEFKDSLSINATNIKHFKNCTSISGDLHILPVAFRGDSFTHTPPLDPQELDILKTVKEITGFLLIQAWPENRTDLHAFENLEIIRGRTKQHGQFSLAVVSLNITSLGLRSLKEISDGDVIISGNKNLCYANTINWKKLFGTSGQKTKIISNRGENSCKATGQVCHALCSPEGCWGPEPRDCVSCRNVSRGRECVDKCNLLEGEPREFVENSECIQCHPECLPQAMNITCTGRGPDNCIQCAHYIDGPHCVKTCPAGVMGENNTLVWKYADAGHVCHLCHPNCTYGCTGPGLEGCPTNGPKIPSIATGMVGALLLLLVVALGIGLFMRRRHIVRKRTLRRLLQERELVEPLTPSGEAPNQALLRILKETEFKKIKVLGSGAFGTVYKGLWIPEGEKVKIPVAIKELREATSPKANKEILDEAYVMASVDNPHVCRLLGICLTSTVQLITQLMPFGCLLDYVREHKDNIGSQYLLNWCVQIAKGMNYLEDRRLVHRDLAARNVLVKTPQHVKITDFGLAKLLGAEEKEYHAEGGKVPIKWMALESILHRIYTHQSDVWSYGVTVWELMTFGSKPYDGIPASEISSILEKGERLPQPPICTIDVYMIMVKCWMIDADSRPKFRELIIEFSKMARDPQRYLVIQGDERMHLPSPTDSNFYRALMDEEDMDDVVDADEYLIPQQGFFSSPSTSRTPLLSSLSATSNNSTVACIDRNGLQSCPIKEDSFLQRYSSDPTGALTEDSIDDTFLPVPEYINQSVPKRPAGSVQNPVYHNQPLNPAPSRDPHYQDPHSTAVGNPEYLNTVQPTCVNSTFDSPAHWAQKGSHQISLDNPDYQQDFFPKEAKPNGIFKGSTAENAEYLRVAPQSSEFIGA
# Experimental: Purification of Epidermal Growth Factor Receptor Tyrosine Kinase
# Human EGF receptor tyrosine kinase was isolated from A431 epidermoid carcinoma cells by the following methods. Cells were grown in roller bottles in 50% Delbuco's Modified Eagle and 50% HAM F-12 nutrient media (Gibco) containing 10% fetal calf serum. Approximately 10^9 cells were lysed in two volumes of buffer containing 20 mM 2-(4N-[2-hydroxyethyl]piperazin-1-yl)ethanesulfonic acid, pH 7.4, 5 mM ethylene glycol bis(2-aminoethyl ether)N,N,N',N'-tetraacetic acid, 1% Triton X-100, 10% glycerol, 0.1 mM sodium orthovanadate, 5 mM sodium fluoride, 4 mM pyrophosphate, 4 mM benzamide, 1 mM dithiothreitol, 80 μg/mL aprotinin, 40 μg/mL leupeptin, and 1 mM phenylmethylsulfonyl fluoride. After centrifugation at 25,000×g for 10 minutes, the supernatant was equilibrated for 2 hours at 4° C. with 10 mL of wheat germ agglutinin sepharose that was previously equilibrated with 50 mM Hepes, 10% glycerol, 0.1% Triton X-100 and 150 mM NaCl, pH 7.5, (equilibration buffer). Contaminating proteins were washed from the resin with 1M NaCl in equilibration buffer, and the enzyme was eluted with 0.5M N-acetyl-1-D-glucosamine in equilibration buffer.
# Determination of IC50 Values
# The reaction was terminated by the addition of 2 mL of 75 mM phosphoric acid and passed through a 2.5-cm phosphocellulose filter disc to bind the peptide. The filter was washed five times with 75 mM phosphoric acid and placed in a vial along with 5 mL of scintillation fluid (Ready gel Beckman).
smiles,measurement,setting,value
"Cc1ccccc1-c1cc2cnc(N)nc2nc1N [Example 90, 6-o-Tolyl-pyrido[2,3-d]pyrimidine-2,7-diamine]",IC50,[1],11.5 µM
same,IC50,[2],22.8 µM
